Test results taken from patent US8889875B2, “Pyridyl derivatives as CFTR modulators” (Vertex Pharmaceuticals Incorporated, priority 2008, dated 2014).

Biological target: T1, ΔF508-CFTR (Homo sapiens, UniProt P13569, DEL508-508)
T1 construct: expressed in transfected cells
Assay: Membrane potential optical assay, identification of correction compounds (single-addition HTS format)
Format: cell-based
Conditions: PercentActivity; ΔF508-CFTR in NIH3T3 mouse fibroblasts; 16-24 hrs with compound; 10 μM forskolin and 20 μM genistein; read-out: BinnedMaxEfficacy
Source text: Membrane Potential Optical Methods for Assaying ΔF508-CFTR Modulation Properties of Compounds.
The assay utilizes fluorescent voltage sensing dyes to measure changes in membrane potential using a fluorescent plate reader (e.g., FLIPR III, Molecular Devices, Inc.) as a readout for increase in functional ΔF508-CFTR in NIH 3T3 cells. The driving force for the response is the creation of a chloride ion gradient in conjunction with channel activation by a single liquid addition step after the cells have previously been treated with compounds and subsequently loaded with a voltage sensing dye.
To identify small molecules that correct the trafficking defect associated with ΔF508-CFTR; a single-addition HTS assay format was developed. Assay Plates containing cells are incubated for ˜2-4 hours in tissue culture incubator at 37° C., 5% CO2, 90% humidity. Cells are then ready for compound exposure after adhering to the bottom of the assay plates.
The cells were incubated in serum-free medium for 16-24 hrs in tissue culture incubator at 37° C., 5% CO2, 90% humidity in the presence or absence (negative control) of test compound. The cells were subsequently rinsed 3× with Krebs Ringers solution and loaded with a voltage sensing redistribution dye. To activate ΔF508-CFTR, 10 μM forskolin and the CFTR potentiator, genistein (20 μM), were added along with Cl^−-free medium to each well. The addition of Cl^−-free medium promoted Cl^− efflux in response to ΔF508-CFTR activation and the resulting membrane depolarization was optically monitored using voltage sensor dyes.
Bath Solution #1: (in mM) NaCl 160, KCl 4.5, CaCl2 2, MgCl2 1, HEPES 10, pH 7.4 with NaOH.
Chloride-free bath solution: Chloride salts in Bath Solution #1 are substituted with gluconate salts.
NIH3T3 mouse fibroblasts stably expressing ΔF508-CFTR are used for optical measurements of membrane potential. The cells are maintained at 37° C. in 5% CO2 and 90% humidity in Dulbecco's modified Eagle's medium supplemented with 2 mM glutamine, 10% fetal bovine serum, 1×NEAA, β-ME, 1×pen/strep, and 25 mM HEPES in 175 cm^2 culture flasks. For all optical assays, the cells were seeded at ˜20,000/well in 384-well matrigel-coated plates and cultured for 2 hrs at 37° C. before culturing at 27° C. for 24 hrs. for the potentiator assay. For the correction assays, the cells are cultured at 27° C. or 37° C. with and without compounds for 16-24 hours.

T1 sequence (P13569 with tags, fused parts or gaps DEL508-508): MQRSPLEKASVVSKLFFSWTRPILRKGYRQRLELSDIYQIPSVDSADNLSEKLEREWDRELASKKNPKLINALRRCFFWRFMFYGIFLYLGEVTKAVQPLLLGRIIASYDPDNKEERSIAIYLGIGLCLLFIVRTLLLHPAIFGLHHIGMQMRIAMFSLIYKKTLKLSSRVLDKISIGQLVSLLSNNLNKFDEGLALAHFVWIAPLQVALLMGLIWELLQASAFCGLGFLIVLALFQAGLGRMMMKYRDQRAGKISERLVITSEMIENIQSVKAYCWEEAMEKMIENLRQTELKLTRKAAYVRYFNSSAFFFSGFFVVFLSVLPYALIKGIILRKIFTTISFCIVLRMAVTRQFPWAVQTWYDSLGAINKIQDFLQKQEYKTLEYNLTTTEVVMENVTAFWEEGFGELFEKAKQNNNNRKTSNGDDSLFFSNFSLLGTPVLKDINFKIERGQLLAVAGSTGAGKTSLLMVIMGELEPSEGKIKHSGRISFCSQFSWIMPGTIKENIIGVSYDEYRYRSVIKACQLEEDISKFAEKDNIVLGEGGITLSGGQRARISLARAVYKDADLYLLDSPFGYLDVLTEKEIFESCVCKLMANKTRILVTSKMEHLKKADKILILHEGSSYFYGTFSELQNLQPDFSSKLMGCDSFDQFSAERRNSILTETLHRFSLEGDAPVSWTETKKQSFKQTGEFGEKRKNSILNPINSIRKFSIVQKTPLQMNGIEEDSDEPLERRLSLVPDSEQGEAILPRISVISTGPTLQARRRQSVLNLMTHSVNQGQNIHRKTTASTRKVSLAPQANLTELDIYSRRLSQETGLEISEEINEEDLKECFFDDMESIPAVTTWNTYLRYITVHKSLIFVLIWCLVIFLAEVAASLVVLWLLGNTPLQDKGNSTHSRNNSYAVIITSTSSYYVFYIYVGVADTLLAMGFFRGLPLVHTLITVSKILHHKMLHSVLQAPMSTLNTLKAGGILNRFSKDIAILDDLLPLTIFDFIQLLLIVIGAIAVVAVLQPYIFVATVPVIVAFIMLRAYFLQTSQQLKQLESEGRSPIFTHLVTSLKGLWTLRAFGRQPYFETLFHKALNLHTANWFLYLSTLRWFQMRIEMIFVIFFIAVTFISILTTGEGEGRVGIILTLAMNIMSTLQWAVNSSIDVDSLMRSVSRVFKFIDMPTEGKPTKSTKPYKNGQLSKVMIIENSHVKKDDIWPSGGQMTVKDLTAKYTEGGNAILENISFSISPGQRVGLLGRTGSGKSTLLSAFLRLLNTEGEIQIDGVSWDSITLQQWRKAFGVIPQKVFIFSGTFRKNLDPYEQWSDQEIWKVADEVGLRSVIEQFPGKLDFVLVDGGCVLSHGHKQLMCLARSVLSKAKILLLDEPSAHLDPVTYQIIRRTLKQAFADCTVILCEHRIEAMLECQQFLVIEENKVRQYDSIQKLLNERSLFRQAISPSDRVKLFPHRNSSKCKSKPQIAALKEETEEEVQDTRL

Row | Structure (SMILES) | Emax [%]
1 | COc1ccccc1C(=O)c1ccc(NC(=O)C2(c3ccccc3OC)CC2)nc1 [Compound 1] | 25 to 100
2 | CCc1ccnc(NC(=O)C2(c3ccc4c(c3)OCO4)CC2)c1 [Compound 2] | > 100
3 | COc1ccc(Cc2cccc(NC(=O)C3(c4ccc5c(c4)OCO5)CC3)n2)cc1 [Compound 3] | > 100
4 | COc1ccccc1Cc1ccc(NC(=O)C2(c3ccc(OC(F)(F)F)cc3)CC2)nc1 [Compound 4] | > 100
5 | Cc1ccccc1Cc1cccc(NC(=O)C2(c3ccc4c(c3)OCO4)CC2)n1 [Compound 5] | > 100
6 | NC(=O)c1ccc(NC(=O)C2(c3ccc4c(c3)OCO4)CC2)nc1 [Compound 6] | 25 to 100
7 | CCN(CC)C(c1ccc(NC(=O)C2(c3ccc4c(c3)OCO4)CC2)nc1)c1ccccc1OC (stereo not shown) [Compound 7] | > 100
8 | COc1ccc(C2(C(=O)Nc3ccc(Cc4ccccc4OC)cn3)CC2)cc1 [Compound 8] | 25 to 100
9 | COc1ccccc1C(c1ccc(NC(=O)C2(c3ccc4c(c3)OCO4)CC2)nc1)N1CCCC1 (stereo not shown) [Compound 9] | > 100
10 | COc1ccccc1Cc1ccc(NC(=O)C2(c3ccc(OC)c(OC)c3)CC2)nc1 [Compound 10] | 25 to 100
11 | COc1ccccc1C(OCCN1CCOCC1)c1ccc(NC(=O)C2(c3ccc4c(c3)OCO4)CC2)nc1 (stereo not shown) [Compound 11] | > 100
12 | COc1ccc(C2(C(=O)Nc3ccc(C(=O)c4ccccc4OC)cn3)CC2)cc1OC [Compound 12] | 25 to 100
13 | COc1ccccc1Cc1ccc(NC(=O)C2(c3ccccc3OC)CC2)nc1 [Compound 13] | 25 to 100
14 | O=C(c1ccccc1)c1ccc(NC(=O)C2(c3ccc4c(c3)OCO4)CC2)nc1 [Compound 14] | > 100
15 | O=C(Nc1ccc(CC2CCCCC2)cn1)C1(c2ccc3c(c2)OCO3)CC1 [Compound 16] | > 100
16 | O=C(Nc1ccc(C(F)(F)F)cn1)C1(c2ccc3c(c2)OCO3)CC1 [Compound 17] | 25 to 100
17 | COc1ccccc1C(OCCN(C(C)C)C(C)C)c1ccc(NC(=O)C2(c3ccc4c(c3)OCO4)CC2)nc1 (stereo not shown) [Compound 18] | 25 to 100
18 | CCc1cccc(NC(=O)C2(c3ccc(OC)cc3)CC2)n1 [Compound 19] | 25 to 100
19 | COc1ccccc1C(c1ccc(NC(=O)C2(c3ccc4c(c3)OCO4)CC2)nc1)N(C)C (stereo not shown) [Compound 20] | > 100
20 | Cc1ccnc(NC(=O)C2(c3ccc4c(c3)OCO4)CC2)c1 [Compound 21] | > 100
21 | COCCN1CCN(C(c2ccc(NC(=O)C3(c4ccc5c(c4)OCO5)CC3)nc2)c2ccccc2OC)CC1 (stereo not shown) [Compound 22] | 25 to 100
22 | COc1ccccc1C(c1ccc(NC(=O)C2(c3ccc4c(c3)OCO4)CC2)nc1)N1CC(C)OC(C)C1 (stereo not shown) [Compound 23] | > 100
23 | O=C(Nc1ccc(Cc2c(Cl)cccc2Cl)cn1)C1(c2ccc3c(c2)OCO3)CC1 [Compound 24] | > 100
24 | COc1ccc(C2(C(=O)Nc3ccccn3)CC2)cc1 [Compound 25] | 25 to 100

Row | Structure (SMILES) | Emax [%]
25 | CCc1cccc(NC(=O)C2(c3ccc4c(c3)OCO4)CC2)n1 [Compound 26] | > 100
26 | COc1ccccc1C(=O)c1ccc(NC(=O)C2(c3ccc4c(c3)OCO4)CC2)nc1 [Compound 27] | > 100
27 | COc1ccc(C2(C(=O)Nc3ccc(C(=O)c4ccccc4OC)cn3)CC2)cc1 [Compound 28] | > 100
28 | CC(C)Cc1ccc(NC(=O)C2(c3ccc4c(c3)OCO4)CC2)nc1 [Compound 29] | > 100
29 | COc1ccccc1C(=O)c1ccc(NC(=O)C2(c3ccc(OC(F)(F)F)cc3)CC2)nc1 [Compound 30] | 25 to 100
30 | COc1ccccc1Cc1ccc(NC(=O)C2(c3ccc(C)cc3)CC2)nc1 [Compound 31] | 25 to 100
31 | COc1ccccc1C(c1ccc(NC(=O)C2(c3ccc4c(c3)OCO4)CC2)nc1)N1CCCCC1 (stereo not shown) [Compound 32] | > 100
32 | CCCOC(c1ccc(NC(=O)C2(c3ccc4c(c3)OCO4)CC2)nc1)c1ccccc1OC (stereo not shown) [Compound 33] | > 100
33 | COc1cccc(C2(C(=O)Nc3ccc(Cc4ccccc4OC)cn3)CC2)c1 [Compound 34] | 25 to 100
34 | COc1ccccc1Cc1ccc(NC(=O)C2(c3ccc4c(c3)OCO4)CC2)nc1 [Compound 35] | > 100
35 | COCC1CCCN1C(c1ccc(NC(=O)C2(c3ccc4c(c3)OCO4)CC2)nc1)c1ccccc1OC (stereo not shown) [Compound 36] | > 100
36 | COc1ccccc1C(=O)c1ccc(NC(=O)C2(c3ccc(SC)cc3)CC2)nc1 [Compound 37] | > 100
37 | COc1ccc(C2(C(=O)Nc3ccc(C)cn3)CC2)cc1 [Compound 38] | 25 to 100
38 | COc1ccccc1C(c1ccc(NC(=O)C2(c3ccc4c(c3)OCO4)CC2)nc1)N1CCN(CCO)CC1 (stereo not shown) [Compound 39] | 25 to 100
39 | Cc1ccc(NC(=O)C2(c3ccc4c(c3)OC(F)(F)O4)CC2)nc1 [Compound 40] | > 100
40 | O=C(Nc1ncccc1OCc1ccccc1)C1(c2ccccc2)CC1 [Compound 41] | 25 to 100
41 | Cc1ccc(NC(=O)C2(c3ccc4c(c3)OCO4)CC2)nc1 [Compound 42] | > 100
42 | CCc1ccc(C)nc1NC(=O)C1(c2ccc3c(c2)OCO3)CC1 [Compound 43] | 25 to 100
43 | COc1ccccc1C(O)c1ccc(NC(=O)C2(c3ccc4c(c3)OCO4)CC2)nc1 (stereo not shown) [Compound 44] | > 100
44 | COc1ccccc1C(c1ccc(NC(=O)C2(c3ccc4c(c3)OCO4)CC2)nc1)N1CCCC1C(N)=O (stereo not shown) [Compound 45] | > 100
45 | COc1ccccc1Cc1ccc(NC(=O)C2(c3ccc(Cl)cc3)CC2)nc1 [Compound 46] | > 100
46 | O=C(Nc1ccc(F)cn1)C1(c2ccc3c(c2)OCO3)CC1 [Compound 47] | > 100
47 | O=C(Nc1ncccc1OCc1ccccc1)C1(c2ccc3c(c2)OCO3)CC1 [Compound 48] | 25 to 100
48 | COc1ccccc1C(c1ccc(NC(=O)C2(c3ccc4c(c3)OCO4)CC2)nc1)N1CCOCC1 (stereo not shown) [Compound 49] | > 100

Row | Structure (SMILES) | Emax [%]
49 | Cc1cnc(NC(=O)C2(c3ccc4c(c3)OC(F)(F)O4)CC2)cc1-c1cccc(C(=O)O)c1 [Compound 50] | 25 to 100
50 | COC[C@@H]1CCCN1C(c1ccc(NC(=O)C2(c3ccc4c(c3)OCO4)CC2)nc1)c1ccccc1OC (stereo partly shown) [Compound 51] | > 100
51 | COc1ccccc1Nc1ccc(NC(=O)C2(c3ccc4c(c3)OCO4)CC2)nc1 [Compound 52] | > 100
52 | CNC(c1ccc(NC(=O)C2(c3ccc4c(c3)OCO4)CC2)nc1)c1ccccc1OC (stereo not shown) [Compound 53] | > 100
53 | COc1ccc(C2(C(=O)Nc3cccc(C)n3)CC2)cc1 [Compound 54] | 25 to 100
54 | COc1ccccc1C(c1ccc(NC(=O)C2(c3ccc4c(c3)OCO4)CC2)nc1)N1CC[C@@H](O)C1 (stereo partly shown) [Compound 55] | > 100
55 | CC(C)Cc1cccc(NC(=O)C2(c3ccc4c(c3)OCO4)CC2)n1 [Compound 56] | > 100
56 | COc1ccccc1C(OCCO)c1ccc(NC(=O)C2(c3ccc4c(c3)OCO4)CC2)nc1 (stereo not shown) [Compound 57] | > 100
57 | COc1ccccc1C(c1ccc(NC(=O)C2(c3ccc4c(c3)OCO4)CC2)nc1)N1CCC(O)CC1 (stereo not shown) [Compound 58] | > 100
58 | O=C(Nc1ccc(Cc2ccccc2Cl)cn1)C1(c2ccc3c(c2)OCO3)CC1 [Compound 59] | > 100
59 | COc1ccc(Cc2ccc(NC(=O)C3(c4ccc5c(c4)OCO5)CC3)nc2)cc1 [Compound 60] | > 100
60 | CCc1cccc(NC(=O)C2(c3ccccc3)CC2)n1 [Compound 61] | 25 to 100
61 | CCN(C)C(c1ccc(NC(=O)C2(c3ccc4c(c3)OCO4)CC2)nc1)c1ccccc1OC (stereo not shown) [Compound 62] | > 100
62 | O=C(Nc1ccc(Cc2ccccc2)cn1)C1(c2ccc3c(c2)OCO3)CC1 [Compound 63] | > 100
63 | COc1ccccc1Nc1cccc(NC(=O)C2(c3ccc4c(c3)OCO4)CC2)n1 [Compound 64] | 25 to 100
64 | N#Cc1ccc(NC(=O)C2(c3ccc4c(c3)OCO4)CC2)nc1 [Compound 65] | 25 to 100
65 | COc1ccccc1C(OCCCO)c1ccc(NC(=O)C2(c3ccc4c(c3)OCO4)CC2)nc1 (stereo not shown) [Compound 66] | > 100
66 | O=C(Nc1cccc(CC2CCCCC2)n1)C1(c2ccc3c(c2)OCO3)CC1 [Compound 67] | > 100
67 | COc1ccccc1C(=O)c1ccc(NC(=O)C2(c3ccc4c(c3)OC(F)(F)O4)CC2)nc1 [Compound 68] | > 100
68 | O=C(Nc1ccccn1)C1(c2ccc3c(c2)OCO3)CC1 [Compound 69] | > 100
69 | COc1ccccc1C(=O)c1ccc(NC(=O)C2(c3ccc(C)cc3)CC2)nc1 [Compound 70] | > 100
70 | COc1ccccc1C(OCCN1CCCCC1)c1ccc(NC(=O)C2(c3ccc4c(c3)OCO4)CC2)nc1 (stereo not shown) [Compound 71] | 25 to 100
